ChEMBL document CHEMBL5579861, “Cytotoxic Peptaibols from Trichoderma guizhouense, a Fungus Isolated from an Urban Soil Sample” (J Nat Prod, 2024)
Non-standard residues stand in square brackets, D forms with d. Residues, ends and D or L forms follow the SMILES beside them. *: point of attachment. Leu(ol) = CC(C)C[C@H](N)CO; dIva = CC[C@@](C)(N)C(=O)O; Valol = CC(C)[C@@H](CO)N*; Aib = CC(C)(N)C(=O)O

How the values were obtained:
SK-OV-3 = experiment: Cytotoxicity against human SK-OV-3 cells assessed as reduction in cell viability after 24 hrs by MTT assay; type: functional, cell-based; settings: SK-OV-3, 24 h
DU-145 = experiment: Cytotoxicity against human DU-145 cells assessed as reduction in cell viability after 24 hrs by MTT assay; type: functional, cell-based; settings: DU-145, 24 h
MDA-MB-231 = experiment: Cytotoxicity against human MDA-MB-231 cells assessed as reduction in cell viability after 24 hrs by MTT assay; type: functional, cell-based; settings: MDA-MB-231, 24 h
SK-HEP1 = experiment: Cytotoxicity against human SK-HEP1 cells assessed as reduction in cell viability after 24 hrs by MTT assay; type: functional, cell-based; settings: SK-HEP1, 24 h
HCT-116 = experiment: Cytotoxicity against human HCT-116 cells assessed as reduction in cell viability after 24 hrs by MTT assay; type: functional, cell-based; settings: HCT-116, 24 h
Plasmodium falciparum = experiment: Antimalarial activity against Plasmodium falciparum Dd2 assessed as reduction in parasite growth incubated for 72 hrs by SYBR Green I staining based assay; type: functional, organism-based; settings: Dd2, 72 h
[1] = Cytotoxicity against human HepG2 cells assessed as reduction in cell viability after 48 hrs by MTS assay; type: toxicity, cell-based
[2] = Selectivity index, ratio of EC50 for cytotoxicity against human HepG2 cells to EC50 for antimalarial activity against Plasmodium falciparum Dd2; type: toxicity, cell-based; settings: read-out: Ratio EC50

SMILES	IC50 (SK-OV-3) [µM]	IC50 (DU-145) [µM]	IC50 (MDA-MB-231) [µM]	IC50 (SK-HEP1) [µM]	IC50 (HCT-116) [µM]	EC50 (Plasmodium falciparum) [µM]	EC50 at 48 h [1] [µM]	selectivity ratio [2]
CC(=O)O[C@@]12CO[C@@H]1C[C@H](O)[C@@]1(C)C(=O)[C@H](O)C3=C(C)[C@@H](OC(=O)[C@H](O)[C@@H](NC(=O)OC(C)(C)C)c4ccccc4)C[C@@](O)([C@@H](OC(=O)c4ccccc4)[C@H]21)C3(C)C [DOCETAXEL ANHYDROUS]	0.05	0.04	0.17	0.03	–	–	–	–
CC(=O)NC(C)(C)C(=O)N[C@@H](CCC(N)=O)C(=O)N[C@@H](CC(C)C)C(=O)NC(C)(C)C(=O)N1CCC[C@H]1C(=O)N[C@@H](C)C(=O)N[C@H](C(=O)NC(C)(C)C(=O)N1CCC[C@H]1C(=O)NC(C)(C)C(=O)N[C@H](C(=O)NC(C)(C)C(=O)N1CCC[C@H]1C(=O)N[C@H](CO)CC(C)C)C(C)C)C(C)C (Ac-[Aib]QL[Aib]PAV[Aib]P[Aib]V[Aib]P[Leu(ol)])	5.3	11	6.4	8.9	7.1	–	–	–
CC[C@@](C)(NC(C)=O)C(=O)N[C@@H](CCC(N)=O)C(=O)N[C@@H](CC(C)C)C(=O)NC(C)(C)C(=O)N1CCC[C@H]1C(=O)N[C@@H](C)C(=O)N[C@H](C(=O)NC(C)(C)C(=O)N1CCC[C@H]1C(=O)N[C@@H](CC(C)C)C(=O)N[C@@H](CC(C)C)C(=O)NC(C)(C)C(=O)N1CCC[C@H]1C(=O)N[C@H](CO)CC(C)C)C(C)C	15	25	14	19	14	–	–	–
CC[C@@](C)(NC(C)=O)C(=O)N[C@@H](CCC(N)=O)C(=O)N[C@@H](CC(C)C)C(=O)NC(C)(C)C(=O)N1CCC[C@H]1C(=O)N[C@@H](C)C(=O)N[C@H](C(=O)NC(C)(C)C(=O)N1CCC[C@H]1C(=O)N[C@](C)(CC)C(=O)N[C@@H](CC(C)C)C(=O)NC(C)(C)C(=O)N1CCC[C@H]1C(=O)N[C@H](CO)CC(C)C)C(C)C	4.3	9.2	5.9	4.3	2.7	–	–	–
CC[C@H](C)[C@H](NC(=O)[C@@](C)(CC)NC(=O)[C@@H]1CCCN1C(=O)C(C)(C)NC(=O)[C@@H](NC(=O)[C@H](C)NC(=O)[C@@H]1CCCN1C(=O)C(C)(C)NC(=O)[C@H](CC(C)C)NC(=O)[C@H](CCC(N)=O)NC(=O)C(C)(C)NC(C)=O)C(C)C)C(=O)NC(C)(C)C(=O)N1CCC[C@H]1C(=O)N[C@H](CO)CC(C)C	3.8	10	4.3	3.8	3	–	–	–
CC[C@H](C)[C@H](NC(=O)C(C)(C)NC(=O)[C@@H]1CCCN1C(=O)C(C)(C)NC(=O)[C@@H](NC(=O)[C@H](C)NC(=O)[C@@H]1CCCN1C(=O)C(C)(C)NC(=O)[C@H](CC(C)C)NC(=O)[C@H](CCC(N)=O)NC(=O)C(C)(C)NC(C)=O)C(C)C)C(=O)NC(C)(C)C(=O)N1CCC[C@H]1C(=O)N[C@H](CO)C(C)C (Ac-[Aib]QL[Aib]PAV[Aib]P[Aib]I[Aib]P-Valol)	7.8	16	4.6	11	9.5	–	–	–
CC[C@H](C)[C@H](NC(=O)[C@H](CC(C)C)NC(=O)[C@H](CCC(N)=O)NC(=O)[C@@](C)(CC)NC(C)=O)C(=O)NC(C)(C)C(=O)N1CCC[C@H]1C(=O)N[C@](C)(CC)C(=O)N[C@@H](CC(C)C)C(=O)NC(C)(C)C(=O)N1CCC[C@H]1C(=O)N[C@H](CO)CC(C)C (Ac-[dIva]QLI[Aib]P[dIva]L[Aib]P[Leu(ol)])	–	–	–	–	–	0.1	> 25	> 250
CC[C@@](C)(NC(=O)[C@H](C)NC(=O)[C@H](CO)NC(=O)C(C)(C)NC(C)=O)C(=O)N[C@](C)(CC)C(=O)N[C@@H](CCC(N)=O)C(=O)N[C@](C)(CC)C(=O)N[C@@H](CC(C)C)C(=O)NC(C)(C)C(=O)N[C@@H](C)C(=O)NC(C)(C)C(=O)NC(C)(C)C(=O)N1CCC[C@H]1C(=O)N[C@@H](CC(C)C)C(=O)NC(C)(C)C(=O)NC(C)(C)C(=O)N[C@@H](CCC(N)=O)C(=O)N[C@H](CO)C(C)C	0.91	1.4	0.68	0.91	0.71	–	–	–
CC[C@@](C)(NC(=O)[C@H](C)NC(=O)[C@H](C)NC(=O)C(C)(C)NC(C)=O)C(=O)N[C@](C)(CC)C(=O)N[C@@H](CCC(N)=O)C(=O)N[C@](C)(CC)C(=O)N[C@@H](CC(C)C)C(=O)NC(C)(C)C(=O)N[C@@H](C)C(=O)NC(C)(C)C(=O)NC(C)(C)C(=O)N1CCC[C@H]1C(=O)N[C@@H](CC(C)C)C(=O)NC(C)(C)C(=O)NC(C)(C)C(=O)N[C@@H](CCC(N)=O)C(=O)N[C@H](CO)C(C)C	2.9	4.5	0.85	0.97	0.83	–	–	–
CC[C@H](C)[C@H](NC(=O)[C@@](C)(CC)NC(=O)[C@@H]1CCCN1C(=O)C(C)(C)NC(=O)[C@@H](NC(=O)[C@H](C)NC(=O)[C@@H]1CCCN1C(=O)C(C)(C)NC(=O)[C@H](CC(C)C)NC(=O)[C@H](CCC(N)=O)NC(=O)C(C)(C)NC(C)=O)C(C)C)C(=O)NC(C)(C)C(=O)N1CCC[C@H]1C(=O)N[C@H](CO)C(C)C	3.8	9.3	3.9	4.6	3.5	–	–	–
CC[C@H](C)[C@H](NC(=O)[C@@](C)(CC)NC(=O)[C@@H]1CCCN1C(=O)C(C)(C)NC(=O)[C@@H](NC(=O)[C@H](C)NC(=O)[C@@H]1CCCN1C(=O)C(C)(C)NC(=O)[C@H](CC(C)C)NC(=O)[C@H](CCC(N)=O)NC(=O)[C@@](C)(CC)NC(C)=O)C(C)C)C(=O)NC(C)(C)C(=O)N1CCC[C@H]1C(=O)N[C@H](CO)CC(C)C	9.2	20	5.5	8	4.8	–	–	–
CC[C@@](C)(NC(=O)[C@H](C)NC(=O)[C@H](CO)NC(=O)C(C)(C)NC(C)=O)C(=O)N[C@](C)(CC)C(=O)N[C@@H](CCC(N)=O)C(=O)N[C@](C)(CC)C(=O)N[C@@H](CC(C)C)C(=O)NC(C)(C)C(=O)N[C@@H](C)C(=O)NC(C)(C)C(=O)NC(C)(C)C(=O)N1CCC[C@H]1C(=O)N[C@@H](CC(C)C)C(=O)NC(C)(C)C(=O)NC(C)(C)C(=O)N[C@@H](CCC(N)=O)C(=O)N[C@H](COC(C)=O)C(C)C	2.9	1.5	0.84	2.1	0.88	–	–	–
CC[C@H](C)[C@H](NC(=O)C(C)(C)NC(=O)[C@@H]1CCCN1C(=O)C(C)(C)NC(=O)[C@@H](NC(=O)[C@H](C)NC(=O)[C@@H]1CCCN1C(=O)C(C)(C)NC(=O)[C@H](CC(C)C)NC(=O)[C@H](CCC(N)=O)NC(=O)C(C)(C)NC(C)=O)C(C)C)C(=O)NC(C)(C)C(=O)N1CCC[C@H]1C(=O)N[C@H](CO)CC(C)C (Ac-[Aib]QL[Aib]PAV[Aib]P[Aib]I[Aib]P[Leu(ol)])	24	36	37	31	16	–	–	–
CC[C@H](C)[C@H](NC(=O)C(C)(C)NC(=O)[C@@H]1CCCN1C(=O)C(C)(C)NC(=O)[C@@H](NC(=O)[C@H](C)NC(=O)[C@@H]1CCCN1C(=O)C(C)(C)NC(=O)[C@H](CC(C)C)NC(=O)[C@H](CCC(N)=O)NC(=O)[C@@](C)(CC)NC(C)=O)C(C)C)C(=O)NC(C)(C)C(=O)N1CCC[C@H]1C(=O)N[C@H](CO)CC(C)C	> 50	> 50	20	4.8	16	–	–	–
